Columns and labels:
Candida glabrata = assay: Antifungal susceptibility testing; format: cell-based
Description: (§1) Sensitivity to gepinacin was determined in 96-well, flat bottom microtiter plates using a modification of the NCCLS broth microdilution protocol CLS M27-A3 and RPMI as culture medium. Fungi were inoculated at ˜10^3 cells per ml and incubated for 48 hours at 37° C. after which plates were sealed, shaken and the optical density read at 600 nm (OD600) on a Tecan Safire 2 plate reader. All samples were run in duplicate or triplicate and assays were repeated at least once. Results are expressed as fraction of growth in the absence of compound and the mean and standard deviation are plotted. For the mold A. terreus, inoculum was 10^4 cells per ml and plates were incubated at 35° C. for 48 hours in the dark. Plates were then visually scored as specified by CLSI document M38-A2 to determine the MIC50 and MIC80.

S. cerevisiae = assay: Antifungal susceptibility testing; format: cell-based
Description: as §1

Aspergillus terreus = assay: Antifungal susceptibility testing (mold, MIC50/MIC80); format: cell-based
Description: as §1

Gwt1 = biological target: T1, Gwt1 (Saccharomyces cerevisiae, UniProt P47026); assay: In vitro acylation assay with yeast membranes; format: biochemical, S. cerevisiae
T1 construct: Wildtype S. cerevisiae BY4741; endogenous in cells; host or cells: S. cerevisiae BY4741 (wild type)
T1 sequence (P47026 1-490): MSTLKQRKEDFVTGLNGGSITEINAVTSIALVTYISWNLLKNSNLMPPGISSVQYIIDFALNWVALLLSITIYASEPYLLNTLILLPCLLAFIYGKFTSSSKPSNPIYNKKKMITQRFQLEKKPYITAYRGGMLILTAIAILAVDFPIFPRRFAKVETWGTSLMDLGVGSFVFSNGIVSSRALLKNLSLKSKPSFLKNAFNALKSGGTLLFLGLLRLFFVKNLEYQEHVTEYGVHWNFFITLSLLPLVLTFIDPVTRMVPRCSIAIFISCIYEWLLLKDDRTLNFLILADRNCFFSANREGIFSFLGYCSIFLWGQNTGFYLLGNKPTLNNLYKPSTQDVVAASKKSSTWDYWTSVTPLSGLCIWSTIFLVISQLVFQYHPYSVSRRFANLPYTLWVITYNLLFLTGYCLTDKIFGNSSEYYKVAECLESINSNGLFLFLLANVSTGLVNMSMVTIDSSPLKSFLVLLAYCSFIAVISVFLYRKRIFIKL
Description: (§2) Experiments were performed using a previously published protocol (Umemara, et al. (2003) J Biol Chem 278, 23639-23647) with the following modifications; UDP[^3H]GlcNAc was used instead of [^14C] and TLC plates were imaged by autoradiography. Lipid extracts were treated overnight with phosphatidylinositol-specific phospholipase C to confirm that the band identified as GlcN-(acyl)PI was resistant to cleavage (data not shown).
Production of GPI-anchors begins on the cytoplasmic surface of the ER but is completed on the luminal side. Gwt1 (in yeast) or PIG-W (mammalian) acts at the first step on the luminal side of the ER, the acylation of glucosamine phosphatidylinositol (GlcN-PI) (FIG. 2b) (Sagane, et al. (2011) J Biol Chem 286, 14649-14658; Murakami, et al. (2003) Mol Biol Cell 14, 4285-4295). To provide direct biochemical evidence that Gwt1 is the proximal protein target of gepinacin in vitro acylation reactions were performed using yeast membrane preparations. UDP[^3H]GlcNAc was incubated with the membranes, and the resulting lipid products were recovered by chemical extraction and fractionated by silica gel thin layer chromatography (TLC). The appearance of a phospholipase-C insensitive band indicated the production of the acylated product.

PIG-W = biological target: T2, PIG-W (Homo sapiens, UniProt Q7Z7B1); assay: In vitro acylation assay with membranes of the PIG-W strain; format: biochemical; conditions: membranes of low copy plasmid strain
T2 construct: expressed in transfected cells; host or cells: S. cerevisiae BY4741-derived gwt1 deletion shuttle strain carrying a pAG415GPD-based PIG-W plasmid
T2 sequence (Q7Z7B1 1-504): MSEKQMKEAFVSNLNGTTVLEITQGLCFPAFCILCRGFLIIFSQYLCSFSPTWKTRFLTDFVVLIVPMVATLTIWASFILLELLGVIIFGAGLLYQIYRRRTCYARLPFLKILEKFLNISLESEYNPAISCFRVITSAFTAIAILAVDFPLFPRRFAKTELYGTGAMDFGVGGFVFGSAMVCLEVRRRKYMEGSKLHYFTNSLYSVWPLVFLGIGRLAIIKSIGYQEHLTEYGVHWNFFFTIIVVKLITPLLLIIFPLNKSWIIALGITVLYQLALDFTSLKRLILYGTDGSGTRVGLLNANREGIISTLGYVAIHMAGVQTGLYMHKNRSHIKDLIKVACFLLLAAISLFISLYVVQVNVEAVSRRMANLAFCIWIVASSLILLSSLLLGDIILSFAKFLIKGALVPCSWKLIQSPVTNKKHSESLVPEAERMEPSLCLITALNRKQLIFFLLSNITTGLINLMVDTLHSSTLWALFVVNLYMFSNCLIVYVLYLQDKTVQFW
Description: Photographs were taken after 24 hours. DMSO-treated cultures have large, dense colonies of C. albicans which are not present in gepinacin-treated cultures. (B) Anti-fungal susceptibility testing of S. cerevisiae strains in which the endogenous GWT1 gene had been replaced by plasmid-driven expression of the human gene (PIG-W), or the fungal gene (GWT1). CEN plasmids are low copy, […] plasmids are high copy.
as §2

NIH 3T3 cells = assay: Co-culture of mammalian cells and C. albicans: mammalian cells; format: cell-based; conditions: 40 μM, 24 hours
Description: For co-culture experiments, confluent layers of NIH 3T3 cells were established in 6-well plates. The following day, the medium was replaced with RPMI1640+10% FBS containing the amphotericin-resistant strain CaAmphR at […] colony forming units per ml and 40 μM gepinacin or an equivalent amount of DMSO. Co-cultures were incubated for 24 hours at 37° C. in a micro-isolator box. Images were acquired on a Nikon Eclipse TS100 microscope at 40×.
Having determined the target of gepinacin in fungi, gepinacin's effect on the human ortholog of Gwt1, PIG-W, was examined. To determine if gepinacin remained active under mammalian cell culture conditions cultured fungi were cultured (either an amphotericin B-resistant (FIG. 3a) or fluconazole-resistant (data not shown) isolate of C. albicans) and mammalian cells together with 40 μM gepinacin. […] PIG-W (and GPI anchor biosynthesis) is not essential for mammalian cells in culture.

## COc1ccc(NC(=O)COc2cccc(OCC(C)C)c2)cc1 [gepinacin]
Candida glabrata
  growth inhibition: inhibited the growth
S. cerevisiae
  growth inhibition: inhibited the growth
Aspergillus terreus
  growth inhibition: inhibited the growth
Gwt1; membranes of low copy plasmid strain
  acyltransferase activity, strain expressing the yeast gene: potently inhibited
Gwt1; yeast membrane preparations, inactive analog at 10 μM
  acylation of GlcN-PI: inhibited the acylation of GlcN-PI at low micromolar concentration
PIG-W
  activity of the human enzyme (GlcN-(acyl)PI formation): not inhibited
NIH 3T3 cells
  effect on mammalian cells in co-culture: no effect
